Results from article PMC10541198, “Specific quinone reductase 2 inhibitors reduce metabolic burden and reverse Alzheimer’s disease phenotype in mice” (The Journal of Clinical Investigation, 2023).
Several values for one entry are separate records, joined by “and”; a condition that tells them apart may be missing. Identical values can stand only once.

Legend:
Format in all cases: cell-based
THLE-2 cells = assay: ATP depletion cell toxicity assay (CellTiter Glo), 72 h; settings: for cell viability, Cell-Titer-Glo (replicates): THLE2, 72 hour, in % (unit assumed); for LD50, cell viability (Cell-Titer-Glo): THLE2 cells, 72 hour incubation
Procedure: (§1) H2DCFDA ROS assay was carried out according to established protocols, with some adjustment (Supplemental Methods) ([6]). Cell toxicity was measured via ATP depletion (CellTiter Glo, Promega) in THLE-2 cells (ATCC, CRL-2706), following 72 hours of exposure to the test compounds, and cell viability was assessed using XTT assay (Biological Industries) according to manufacturers protocols. CETSA was performed as previously described ([53]) with some modifications, using QR2 (Santa Cruz, sc-271665) and SOD1 (Santa Cruz, sc-17767) antibodies. SDS-PAGE and immunoblot imaging were carried out as previously described ([55]), using Tubulin (Sigma-Aldrich, SAB4500087), QR2 (Santa Cruz, sc-271665), NDUFA9 (AbCam, ab14713) and CD73 (Cell Signaling Technology, D7F9A) antibodies.
with a 100 µM as upper limit, for 72 h. […]
(§2) Cellular The rm a l Shift Assay (CETSA) […]
(§3) 17767). Analysis of the results wer e done in accordance to Jafari et a l .( 63) us i ng GraphPad Pr i sm software.

QR2 expressed in HEK293T = target: T1, QR2 expressed in HEK293T (Homo sapiens, UniProt P16083); assay: Cellular thermal shift assay (CETSA; Tagg curves and ITDRF); settings: 73°C; for EC50: n = 3, read-out: EC50, isothermal dose-response of QR2 stabilization; for QR2 stabilization signal, ITDRF (replicates): log[Inhibitor]
T1 construct: endogenous in cells; host or cells: HEK293T
T1 sequence (P16083 1-231): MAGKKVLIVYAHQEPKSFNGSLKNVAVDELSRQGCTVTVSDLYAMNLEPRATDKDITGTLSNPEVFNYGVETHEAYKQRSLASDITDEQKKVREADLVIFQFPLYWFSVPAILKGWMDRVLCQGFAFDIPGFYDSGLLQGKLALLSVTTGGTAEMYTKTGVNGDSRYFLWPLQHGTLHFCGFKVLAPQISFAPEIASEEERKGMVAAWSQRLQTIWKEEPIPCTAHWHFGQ
Procedure: (§4) To establish direct target engagement and cell membrane permeability, a cellular thermal shift assay (CETSA) was carried out, using leading QR2is YB’s-537, 800, and 808. Following a 1 hour preincubation with 5 μM of the QR2is or vehicle, thermal aggregation curves (Taggs) of QR2 expressed in HEK293T were measured in increasing temperatures. All QR2is increased QR2 thermal stability compared with vehicle (Supplemental Figure 2A). Based on the Tagg curves we selected 73°C for isothermal dose-response fingerprint (IDTRF) experiments (Supplemental Figure 2B). The ITDRF allowed the relative quantification of the binding of each of the QR2is to QR2, measured as the EC50 (Figure 3A). […] We evaluated the safety of the QR2is using cell toxicity and viability assays. […] Cell viability was assessed by XTT assay in HEK239T cells, using a dose response, with 3- or 24-hour incubations of the leading QR2is. No sign of toxicity was seen (Figure 3C). Next, we wanted to assess if, similar to QR2 KO, QR2is can reduce cellular ROS in HCT116 cells and see whether any observable effect is occluded in QR2Δ cells. […] We then assessed WT HCT116 cells by immunoblot (Supplemental Figure 2, C and D), after being treated with YB-800 (2 μM) for 4 consecutive days.
as §1, with “D7F9A) antibodies. […]” for “D7F9A) antibodies.”
(§5) HEK293FT cells were cultured with penicillin- streptomycin antibiotics in Invitrogen DMEM (Thermo
(§6) Fisher Scientific) with 10% fetal bovine serum a nd L -glutamine, and grown to 80-90% confluence in 100
mm plates, while being passaged every 2–3 d. […]
Cellular The rm a l Shift Assay (CETSA)
The CETSA assay was performed as described(54) with some modifications. Bri efl y, HEK293T cel ls wer e
trypsinized (Biological Indust ri es), washed in PBS (Sigma-Aldrich) and then suspended in PBS containing
protease inhibitor cocktail (Roche). The suspended cells were then divided into two Eppendorf tubes and
were treated with either compound or DMSO (Sigma-Aldrich) for 1h at 37 °C with shaking. Following
treatment, each sample was divided into PCR tubes (100µL/tube) and subjected to a temperature gradient
(ranging fr om 63 to 80 °C) for 3 minutes. Cell lysates we r e obtained by 3- cycles of freeze- t ha w using li qui d
nitrogen and a thermal bl ock set to 25 °C. Samples were then centrifuged at 15,000rpm at 4 °C f or 20min a nd
were subsequently analyzed by Western Blot of QR2 (1:100, Santa Cruz; sc-271665). The isothermal
concentration response fingerprint (ITDRF) experiments were done using a constant temperature of 73 °C.
Band intensities were normalized to the highest concentration and SOD1 levels (1:200, Santa Cruz; sc -
as §3

HEK293 cells = assay: XTT cell viability assay; settings: in % (unit assumed)
Procedure: as §4
as §1, with “D7F9A) antibodies. […]” for “D7F9A) antibodies.”
as §5, §6
mm plates, while being passaged every 2–3 d. For the XTT assay (Biological Industries), cells were then
collected, centrifuged, and resuspended in fresh Minimum Essential Medium, and seeded at 50,000
cells/well in 96-well, poly- L-lysine-coated Nunc black, clear flat-bottomed plates (Thermo Fisher
Scientific). The next day, the cells were treated with increasing doses of QR2 inhibitors or vehicle f or 3 h,
and the XTT assay was then carried out as per the manufacturer’s instructions.
as §2, §3

SMILES | cell viability, Cell-Titer-Glo (replicates) (THLE-2 cells; inhibitor 3.9e-7 M) | cell viability, Cell-Titer-Glo (replicates) (THLE-2 cells; inhibitor 7.8e-7 M) | cell viability, Cell-Titer-Glo (replicates) (THLE-2 cells; inhibitor 1.5625e-6 M) | cell viability, Cell-Titer-Glo (replicates) (THLE-2 cells; inhibitor 3.125e-6 M) | cell viability, Cell-Titer-Glo (replicates) (THLE-2 cells; inhibitor 6.25e-6 M) | cell viability, Cell-Titer-Glo (replicates) (THLE-2 cells; inhibitor 1.25e-5 M) | cell viability, Cell-Titer-Glo (replicates) (THLE-2 cells; inhibitor 2.5e-5 M) | cell viability, Cell-Titer-Glo (replicates) (THLE-2 cells; inhibitor 5e-5 M) | cell viability, Cell-Titer-Glo (replicates) (THLE-2 cells; inhibitor 0.0001 M) | LD50, cell viability (Cell-Titer-Glo) (THLE-2 cells) | EC50 (QR2 expressed in HEK293T) | QR2 stabilization signal, ITDRF (replicates) (QR2 expressed in HEK293T; M -5) | QR2 stabilization signal, ITDRF (replicates) (QR2 expressed in HEK293T; M -5.6) | QR2 stabilization signal, ITDRF (replicates) (QR2 expressed in HEK293T; M -5.9) | QR2 stabilization signal, ITDRF (replicates) (QR2 expressed in HEK293T; M -6.2) | QR2 stabilization signal, ITDRF (replicates) (QR2 expressed in HEK293T; M -6.5) | QR2 stabilization signal, ITDRF (replicates) (QR2 expressed in HEK293T; M -6.8) | QR2 stabilization signal, ITDRF (replicates) (QR2 expressed in HEK293T; M -7.1) | QR2 stabilization signal, ITDRF (replicates) (QR2 expressed in HEK293T; M -7.4) | QR2 stabilization signal, ITDRF (replicates) (QR2 expressed in HEK293T; M -7.7) | further results
Cc1ccc(-c2cn3cccc(C)c3n2)cc1S(=O)(=O)N1CCC(C)CC1 [YB-800] | 96.3 and 111.4 | 111.0 and 92.8 | 96.0 | 102.0 and 98.8 | 95.3 and 97.2 | 87.5 and 81.6 | 74.8 and 70.3 | 54.4 and 53.1 | 50.5 and 51.2 | 78.401 µM | 34 nM | 4070 and 3736 | 4506 and 4561 and 4867 | 4786 and 3969 and 5175 | 5056 and 3732 and 5224 | 4815 and 4201 and 4200 | 4651 and 3683 and 3564 | 3508 and 2203 and 2700 | 2230 and 1871 and 2017 | 1054 and 942 and 1103 | QR2 stabilization signal, ITDRF (replicates) (QR2 expressed in HEK293T; M -8): 655 and 480 and 469; QR2 stabilization signal, ITDRF (replicates) (QR2 expressed in HEK293T; M -9): 36 and 24 and 14; cell viability, XTT (replicates) (HEK293 cells; 3h, inhibitor 2e-8 M): 110.8 and 103.7 and 108.0 and 102.4; cell viability, XTT (replicates) (HEK293 cells; 3h, inhibitor 2e-7 M): 102.8 and 101.2 and 105.3 and 105.6; cell viability, XTT (replicates) (HEK293 cells; 3h, inhibitor 2e-6 M): 102.2 and 105.1 and 102.6 and 106.5; cell viability, XTT (replicates) (HEK293 cells; 3h, inhibitor 2e-5 M): 89.7 and 90.4 and 98.2 and 92.7; cell viability, XTT (replicates) (HEK293 cells; 24h, inhibitor 2e-8 M): 107.0 and 100.8 and 108.4; cell viability, XTT (replicates) (HEK293 cells; 24h, inhibitor 2e-7 M): 107.9 and 100.0 and 108.0; cell viability, XTT (replicates) (HEK293 cells; 24h, inhibitor 2e-6 M): 108.3 and 101.8 and 109.9; cell viability, XTT (replicates) (HEK293 cells; 24h, inhibitor 2e-5 M): 104.0 and 96.6 and 104.9
Cc1ccc(-c2cn3cccc(C)c3n2)cc1S(=O)(=O)N1CCNCC1 [YB-537] | 89.3 and 104.9 and 105.3 | 93.6 and 99.6 and 103.9 | 96.4 and 109.9 and 90.1 | 92.2 and 96.1 and 103.0 | 89.6 and 101.5 and 85.3 | 95.7 and 97.8 and 93.2 | 93.9 and 92.0 and 88.2 | 91.4 and 92.2 | 81.5 and 82.7 and 80.4 | > 100 µM | 129 nM | 8037 and 7667 | 10469 and 7617 and 6857 | 10266 and 7463 and 6486 | 8878 and 6878 and 4582 | 6804 and 5633 | 3383 and 3296 and 2262 | 1653 and 1901 and 1028 | 762 and 749 and 458 | 410 and 416 | QR2 stabilization signal, ITDRF (replicates) (QR2 expressed in HEK293T; M -8): 212 and 226 and 182; QR2 stabilization signal, ITDRF (replicates) (QR2 expressed in HEK293T; M -9): 110 and 98 and 105; cell viability, XTT (replicates) (HEK293 cells; 3h, inhibitor 2e-8 M): 94.7 and 105.7 and 95.0 and 97.1; cell viability, XTT (replicates) (HEK293 cells; 3h, inhibitor 2e-7 M): 97.9 and 102.5 and 95.0 and 99.0; cell viability, XTT (replicates) (HEK293 cells; 3h, inhibitor 2e-6 M): 99.1 and 104.8 and 106.5 and 98.8; cell viability, XTT (replicates) (HEK293 cells; 3h, inhibitor 2e-5 M): 94.7 and 101.0 and 104.9 and 96.7; cell viability, XTT (replicates) (HEK293 cells; 24h, inhibitor 2e-8 M): 105.3 and 102.1 and 104.1; cell viability, XTT (replicates) (HEK293 cells; 24h, inhibitor 2e-7 M): 107.4 and 101.8 and 105.2; cell viability, XTT (replicates) (HEK293 cells; 24h, inhibitor 2e-6 M): 109.0 and 101.0 and 104.0; cell viability, XTT (replicates) (HEK293 cells; 24h, inhibitor 2e-5 M): 106.0 and 97.3 and 109.2
